Source: ChEMBL document CHEMBL5154688, “Design, Synthesis, and Characterization of I-BET567, a Pan-Bromodomain and Extra Terminal (BET) Bromodomain Oral Candidate” (J Med Chem, 2022)

Tests used:
[1] = Unbound fraction in Wistar Han rat blood at 3 mg/kg, po or 1.3 mg/kg, iv measured upto 24 hrs by LC-MS/MS analysis; type: ADME, organism-based
[2] = molecular target: CREB-binding protein (Homo sapiens, UniProt Q92793); assay: Binding affinity to CREBBP (unknown origin) assessed as dissociation constant
CREB-binding protein, sequence (Q92793 whole entry): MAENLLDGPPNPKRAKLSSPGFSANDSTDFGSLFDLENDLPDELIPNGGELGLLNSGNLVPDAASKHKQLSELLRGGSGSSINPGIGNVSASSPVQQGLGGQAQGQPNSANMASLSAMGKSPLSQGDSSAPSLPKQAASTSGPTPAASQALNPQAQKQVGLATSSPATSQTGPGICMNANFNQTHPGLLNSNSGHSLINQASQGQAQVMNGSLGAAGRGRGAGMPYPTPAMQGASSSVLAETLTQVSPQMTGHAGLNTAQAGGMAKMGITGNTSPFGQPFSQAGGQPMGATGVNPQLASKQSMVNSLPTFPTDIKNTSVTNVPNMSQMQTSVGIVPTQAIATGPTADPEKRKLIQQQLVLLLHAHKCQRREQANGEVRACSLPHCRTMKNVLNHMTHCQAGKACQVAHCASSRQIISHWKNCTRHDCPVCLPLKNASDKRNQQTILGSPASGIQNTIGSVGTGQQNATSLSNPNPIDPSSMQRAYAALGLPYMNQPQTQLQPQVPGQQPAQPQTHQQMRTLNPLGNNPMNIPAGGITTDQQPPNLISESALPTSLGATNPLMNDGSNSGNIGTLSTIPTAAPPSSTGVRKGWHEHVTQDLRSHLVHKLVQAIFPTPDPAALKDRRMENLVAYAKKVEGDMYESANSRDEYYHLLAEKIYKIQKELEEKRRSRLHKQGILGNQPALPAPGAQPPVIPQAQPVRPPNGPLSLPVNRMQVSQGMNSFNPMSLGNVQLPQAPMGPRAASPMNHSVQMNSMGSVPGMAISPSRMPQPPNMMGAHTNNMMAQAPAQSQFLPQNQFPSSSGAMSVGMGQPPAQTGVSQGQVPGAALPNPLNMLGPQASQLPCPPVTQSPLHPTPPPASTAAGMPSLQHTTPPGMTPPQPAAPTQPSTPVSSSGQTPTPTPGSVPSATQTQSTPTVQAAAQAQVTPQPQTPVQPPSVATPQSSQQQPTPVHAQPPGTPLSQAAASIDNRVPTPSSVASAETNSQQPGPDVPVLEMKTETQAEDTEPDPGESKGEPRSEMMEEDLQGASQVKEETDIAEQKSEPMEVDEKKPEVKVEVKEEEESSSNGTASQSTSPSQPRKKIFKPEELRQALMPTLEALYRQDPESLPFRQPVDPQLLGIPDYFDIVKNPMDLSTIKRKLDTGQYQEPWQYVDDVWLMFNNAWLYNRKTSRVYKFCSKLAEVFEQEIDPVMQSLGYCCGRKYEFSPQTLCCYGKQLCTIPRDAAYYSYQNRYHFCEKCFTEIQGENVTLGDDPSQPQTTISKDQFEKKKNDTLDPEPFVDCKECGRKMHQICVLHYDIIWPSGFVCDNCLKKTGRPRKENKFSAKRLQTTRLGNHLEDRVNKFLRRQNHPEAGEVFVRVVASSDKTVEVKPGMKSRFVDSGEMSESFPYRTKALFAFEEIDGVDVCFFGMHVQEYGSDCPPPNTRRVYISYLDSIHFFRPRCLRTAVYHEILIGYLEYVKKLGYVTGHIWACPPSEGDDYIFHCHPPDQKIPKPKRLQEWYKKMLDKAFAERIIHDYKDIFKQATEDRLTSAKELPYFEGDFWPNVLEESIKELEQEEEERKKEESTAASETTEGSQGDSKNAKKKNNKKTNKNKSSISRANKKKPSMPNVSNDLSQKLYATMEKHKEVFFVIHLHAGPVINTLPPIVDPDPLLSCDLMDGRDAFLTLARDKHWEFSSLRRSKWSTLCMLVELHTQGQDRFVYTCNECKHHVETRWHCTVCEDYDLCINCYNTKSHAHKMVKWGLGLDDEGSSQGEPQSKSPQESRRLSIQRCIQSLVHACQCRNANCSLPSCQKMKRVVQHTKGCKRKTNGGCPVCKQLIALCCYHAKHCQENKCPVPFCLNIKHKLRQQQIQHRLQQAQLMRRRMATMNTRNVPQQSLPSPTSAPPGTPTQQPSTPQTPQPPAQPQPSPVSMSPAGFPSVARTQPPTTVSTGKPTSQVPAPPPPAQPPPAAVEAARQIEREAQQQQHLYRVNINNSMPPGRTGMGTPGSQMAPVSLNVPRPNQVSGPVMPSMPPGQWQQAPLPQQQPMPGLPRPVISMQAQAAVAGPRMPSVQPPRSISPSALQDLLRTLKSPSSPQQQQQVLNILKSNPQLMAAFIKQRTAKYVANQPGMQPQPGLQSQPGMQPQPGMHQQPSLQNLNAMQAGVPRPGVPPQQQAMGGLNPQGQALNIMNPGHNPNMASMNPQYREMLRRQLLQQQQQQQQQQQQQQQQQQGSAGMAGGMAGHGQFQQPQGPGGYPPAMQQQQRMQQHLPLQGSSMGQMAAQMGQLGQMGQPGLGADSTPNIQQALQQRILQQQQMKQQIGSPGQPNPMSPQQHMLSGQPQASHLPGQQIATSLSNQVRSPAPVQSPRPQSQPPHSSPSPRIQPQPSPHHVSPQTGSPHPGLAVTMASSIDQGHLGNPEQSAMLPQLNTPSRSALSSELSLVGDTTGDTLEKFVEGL

[3] = Cmax in KLH-TNP-induced T-cell dependent immunization CD-1 mouse model at 30 mg/kg, po administered every other day for 14 days; type: ADME, organism-based; set-up: dose 30 mg/kg, time 14 day, route po; details: in vivo
[4] = Antineoplastic activity against human NMC 11060 cells xenografted in SCID mouse assessed as reduction in tumor volume at 10 mg/kg, po for 20 days measured at 17 days of post randomization relative to control; type: functional; details: NMC 11060 cell, 480 h, time 20 day
[5] = Antineoplastic activity against human NMC 11060 cells xenografted in SCID mouse assessed as reduction in tumor volume at 30 mg/kg, po for 20 days measured at 17 days of post randomization relative to control; type: functional; details: NMC 11060 cell, 480 h, time 20 day
[6] = Renal clearance in Wistar Han rat at 3 mg/kg, po or 1.3 mg/kg, iv upto 24 hrs by LC-MS/MS analysis; type: ADME, organism-based; details: in vivo
[7] = Renal clearance in Beagle dog at 3 mg/kg, po or 1.0 mg/kg, iv by LC-MS/MS analysis; type: ADME, organism-based, Canis lupus familiaris; details: in vivo
[8] = molecular target: Cytochrome P450 3A4 (Homo sapiens, UniProt P08684); assay: Inhibition of CYP3A4 (unknown origin); type: ADME
Cytochrome P450 3A4, sequence (P08684 whole entry): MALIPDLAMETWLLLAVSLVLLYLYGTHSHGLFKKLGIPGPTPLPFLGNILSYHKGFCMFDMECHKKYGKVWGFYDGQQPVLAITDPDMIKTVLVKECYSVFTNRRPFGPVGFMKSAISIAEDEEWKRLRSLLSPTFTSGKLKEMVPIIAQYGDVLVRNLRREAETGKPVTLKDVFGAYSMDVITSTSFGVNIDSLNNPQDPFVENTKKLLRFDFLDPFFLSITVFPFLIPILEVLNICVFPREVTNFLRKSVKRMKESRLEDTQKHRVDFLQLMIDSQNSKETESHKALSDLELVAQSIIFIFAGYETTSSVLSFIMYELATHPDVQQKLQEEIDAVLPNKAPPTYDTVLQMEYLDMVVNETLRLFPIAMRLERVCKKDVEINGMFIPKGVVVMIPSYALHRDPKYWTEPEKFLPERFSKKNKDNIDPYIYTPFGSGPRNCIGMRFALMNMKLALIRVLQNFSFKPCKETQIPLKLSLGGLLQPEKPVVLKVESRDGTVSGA

[9] = Unbound clearance in Wistar Han rat blood at 3 mg/kg, po or 1.3 mg/kg, iv measured upto 24 hrs by LC-MS/MS analysis; type: ADME, organism-based; details: in vivo
[10] = Unbound clearance in Beagle dog blood at 3 mg/kg, po or 1.0 mg/kg, iv by LC-MS/MS analysis; type: ADME, organism-based, Canis lupus familiaris; details: in vivo
[11] = Unbound volume of distribution at steady state in Beagle dog blood at 3 mg/kg, po or 1.0 mg/kg, iv by LC-MS/MS analysis; type: ADME, organism-based, Canis lupus familiaris; details: in vivo
[12] = Antineoplastic activity against human NMC 11060 cells xenografted in SCID mouse assessed as reduction in tumor volume at 30 mg/kg, po for 20 days measured at 8 days of post randomization relative to control; type: functional; details: NMC 11060 cell, 480 h, time 20 day
[13] = Volume of distribution at steady state in Beagle dog blood at 3 mg/kg, po or 1.0 mg/kg, iv by LC-MS/MS analysis; type: ADME, organism-based, Canis lupus familiaris; details: in vivo
[14] = Terminal half life in Beagle dog blood at 3 mg/kg, po or 1.0 mg/kg, iv by LC-MS/MS analysis; type: ADME, organism-based, Canis lupus familiaris; details: read-out: beta t1/2 (converted)
[15] = Terminal half life in Wistar Han rat blood at 3 mg/kg, po or 1.3 mg/kg, iv measured upto 24 hrs by LC-MS/MS analysis; type: ADME, organism-based; details: read-out: beta t1/2 (converted)
[16] = molecular target: Bromodomain-containing protein 4 (Homo sapiens, UniProt O60885); assay: Inhibition of BRD4 BD1 (unknown origin) incubated for 30 mins in presence of fluorescent ligand by TR-FRET method
[17] = Antineoplastic activity against human NMC 11060 cells xenografted in SCID mouse assessed as reduction in tumor volume at 30 mg/kg, po for 20 days measured at 3 days of post randomization relative to control; type: functional; details: NMC 11060 cell, 480 h, time 20 day
[18] = Toxicity in KLH-TNP-induced T-cell dependent immunization CD-1 mouse model assessed as tolerability at 30 mg/kg, po administered daily for 14 days; type: organism-based; details: in vivo, 336 h, time 14 day
[19] = Antineoplastic activity against human NMC 11060 cells xenografted in SCID mouse assessed as reduction in tumor volume at 30 mg/kg, po for 20 days measured at 20 days of post randomization relative to control; type: functional; details: NMC 11060 cell, 480 h, time 20 day
[20] = Artificial membrane permeability of the compound; type: ADME; details: PAMPA; read-out: permeability
[21] = Cmax in KLH-TNP-induced T-cell dependent immunization CD-1 mouse model at 30 mg/kg, po administered every third day for 14 days; type: ADME, organism-based; set-up: time 14 day, dose 30 mg/kg, route po; details: in vivo
[22] = Oral bioavailability in Wistar Han rat blood at 3 mg/kg measured upto 24 hrs by LC-MS/MS analysis; type: ADME, organism-based
[23] = Toxicity in SCID mouse xenografted with human NMC 11060 cells assessed as tolerability at 3 to 30 mg/kg, po for 20 days; type: organism-based; details: in vivo, 480 h, dose 3-30 mg/kg, time 20 day
[24] = Toxicity in KLH-TNP-induced T-cell dependent immunization CD-1 mouse model assessed as effect on body weight at 30 mg/kg, po administered daily for 14 days; type: organism-based; details: in vivo, 336 h, time 14 day
[25] = Antineoplastic activity against human NMC 11060 cells xenografted in SCID mouse assessed as reduction in tumor volume at 30 mg/kg, po for 20 days measured at 6 days of post randomization relative to control; type: functional; details: NMC 11060 cell, 480 h, time 20 day
[26] = molecular target: Voltage-gated inwardly rectifying potassium channel KCNH2 (Homo sapiens, UniProt Q12809); assay: Inhibition of hERG; type: toxicity
Voltage-gated inwardly rectifying potassium channel KCNH2, sequence (Q12809 whole entry): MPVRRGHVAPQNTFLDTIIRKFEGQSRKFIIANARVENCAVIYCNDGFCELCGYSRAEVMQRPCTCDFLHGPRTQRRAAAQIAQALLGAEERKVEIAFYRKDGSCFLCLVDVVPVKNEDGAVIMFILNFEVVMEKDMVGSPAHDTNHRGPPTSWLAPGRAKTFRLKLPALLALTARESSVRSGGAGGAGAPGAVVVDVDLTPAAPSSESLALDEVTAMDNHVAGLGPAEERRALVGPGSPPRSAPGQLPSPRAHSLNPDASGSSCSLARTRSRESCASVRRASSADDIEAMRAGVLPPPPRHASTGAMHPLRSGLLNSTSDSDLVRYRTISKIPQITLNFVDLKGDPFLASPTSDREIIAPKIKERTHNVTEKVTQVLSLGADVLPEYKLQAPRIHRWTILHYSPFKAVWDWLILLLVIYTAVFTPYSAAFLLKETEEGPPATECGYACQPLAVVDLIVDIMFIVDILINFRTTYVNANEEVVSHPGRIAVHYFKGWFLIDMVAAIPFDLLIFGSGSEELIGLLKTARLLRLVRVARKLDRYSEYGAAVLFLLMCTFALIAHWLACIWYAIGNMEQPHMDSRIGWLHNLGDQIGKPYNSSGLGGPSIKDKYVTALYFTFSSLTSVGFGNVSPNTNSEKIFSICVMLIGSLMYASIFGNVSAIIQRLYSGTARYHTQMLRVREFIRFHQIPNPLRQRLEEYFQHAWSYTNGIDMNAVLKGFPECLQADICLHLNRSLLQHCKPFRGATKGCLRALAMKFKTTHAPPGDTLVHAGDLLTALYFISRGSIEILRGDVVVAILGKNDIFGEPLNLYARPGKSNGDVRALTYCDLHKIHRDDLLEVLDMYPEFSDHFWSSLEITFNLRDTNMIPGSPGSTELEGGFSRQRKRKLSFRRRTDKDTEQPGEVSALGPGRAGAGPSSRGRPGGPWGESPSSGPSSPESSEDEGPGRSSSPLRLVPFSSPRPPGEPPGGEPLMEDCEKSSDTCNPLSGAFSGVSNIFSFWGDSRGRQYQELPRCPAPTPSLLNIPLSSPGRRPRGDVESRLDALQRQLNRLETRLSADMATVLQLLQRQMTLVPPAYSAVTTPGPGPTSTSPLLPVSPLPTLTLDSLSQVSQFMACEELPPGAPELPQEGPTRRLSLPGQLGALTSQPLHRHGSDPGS

[27] = Unbound AUC(0 to 24 hrs) in SCID mouse xenografted with human NMC 11060 cells at 3 to 30 mg/kg, po for 20 days; type: ADME, organism-based; details: in vivo, 480 h, dose 3-30 mg/kg, time 20 day
[28] = Volume of distribution at steady state in Wistar Han rat blood at 3 mg/kg, po or 1.3 mg/kg, iv measured upto 24 hrs by LC-MS/MS analysis; type: ADME, organism-based; details: in vivo
[29] = Antineoplastic activity against human NMC 11060 cells xenografted in SCID mouse assessed as reduction in tumor volume at 30 mg/kg, po for 20 days measured at 15 days of post randomization relative to control; type: functional; details: NMC 11060 cell, 480 h, time 20 day
[30] = Antiproliferative activity against human NMC 11060 cells assessed as inhibition of proliferation; type: functional, cell-based; details: NUT midline carcinoma
[31] = Antineoplastic activity against human NMC 11060 cells xenografted in SCID mouse assessed as reduction in tumor volume at 3 to 30 mg/kg, po for 20 days; type: functional, NUT midline carcinoma; set-up: scale not given: the % may be the effect or the level left; details: dose 3-30 mg/kg, time 20 day

fraction unbound at 24 h [1]: 0.23
Kd [2]: 2510 nM
Cmax [3]: 8.5 µM
CL renal at 24 h [6]: 7 mL/min/kg
CL renal [7]: 6.9 mL/min/kg
IC50 [8]: > 39.8 µM
CL free [9]: 109 mL/min/kg
CL free [10]: 20 mL/min/kg
Vduss [11]: 2.9 L/kg
Vdss [13]: 1.2 L/kg
half-life [14]: 108 min
half-life [15]: 96 min
IC50 [16]: 126 nM
Papp [20]: 6.8 ×10⁻⁶ cm/s
Cmax [21]: 8.5 µM
bioavailability [22]: 99%
fAUC [27]: 10 µM·h
Vdss [28]: 2.4 L/kg
SMILES: CC(=O)N1c2ccc(C(N)=O)cc2[C@H](Nc2ncc(Cl)cn2)C[C@@H]1C
inhibition in vivo at 10 mg/kg [4]: 59%
inhibition in vivo at 30 mg/kg [5]: 93%
inhibition in vivo at 30 mg/kg [12]: 85%
inhibition in vivo at 30 mg/kg [17]: 44%
Activity [18]: Non-Toxic
inhibition in vivo at 30 mg/kg [19]: 93%
Activity [23]: Non-Toxic
Activity [24]: Non-Toxic
inhibition in vivo at 30 mg/kg [25]: 70%
IC50 [26]: > 50.1 µM
inhibition in vivo at 30 mg/kg [29]: 92%
IC50 [30]: 630 nM
Activity [31]: >50%
